Data from paper PMC4737078, “Cytochrome P450 CYP71BE5 in grapevine (Vitis vinifera) catalyzes the formation of the spicy aroma compound (−)-rotundone” (Journal of Experimental Botany, 2015).

T1: VvSTO4 (Vitis vinifera, UniProt A0A0S3QPU4)
T1 construct: gene CYP71BE1
T1 sequence (A0A0S3QPU4 1-504): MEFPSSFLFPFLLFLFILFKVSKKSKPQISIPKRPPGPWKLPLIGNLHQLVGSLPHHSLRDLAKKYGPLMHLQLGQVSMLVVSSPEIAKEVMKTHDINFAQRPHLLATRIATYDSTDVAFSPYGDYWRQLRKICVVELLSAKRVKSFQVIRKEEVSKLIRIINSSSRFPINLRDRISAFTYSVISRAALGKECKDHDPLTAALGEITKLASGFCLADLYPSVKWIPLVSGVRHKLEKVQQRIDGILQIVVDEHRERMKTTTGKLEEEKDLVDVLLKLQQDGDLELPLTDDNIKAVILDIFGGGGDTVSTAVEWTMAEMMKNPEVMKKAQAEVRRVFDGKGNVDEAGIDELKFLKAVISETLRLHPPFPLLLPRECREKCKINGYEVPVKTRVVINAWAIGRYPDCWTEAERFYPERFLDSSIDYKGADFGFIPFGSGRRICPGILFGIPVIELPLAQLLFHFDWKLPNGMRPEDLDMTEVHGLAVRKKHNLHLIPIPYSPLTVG

T2: VvSTO6 (Vitis vinifera, UniProt A0A0S3QPS9)
T2 construct: gene CYP71BE10
T2 sequence (A0A0S3QPS9 1-505): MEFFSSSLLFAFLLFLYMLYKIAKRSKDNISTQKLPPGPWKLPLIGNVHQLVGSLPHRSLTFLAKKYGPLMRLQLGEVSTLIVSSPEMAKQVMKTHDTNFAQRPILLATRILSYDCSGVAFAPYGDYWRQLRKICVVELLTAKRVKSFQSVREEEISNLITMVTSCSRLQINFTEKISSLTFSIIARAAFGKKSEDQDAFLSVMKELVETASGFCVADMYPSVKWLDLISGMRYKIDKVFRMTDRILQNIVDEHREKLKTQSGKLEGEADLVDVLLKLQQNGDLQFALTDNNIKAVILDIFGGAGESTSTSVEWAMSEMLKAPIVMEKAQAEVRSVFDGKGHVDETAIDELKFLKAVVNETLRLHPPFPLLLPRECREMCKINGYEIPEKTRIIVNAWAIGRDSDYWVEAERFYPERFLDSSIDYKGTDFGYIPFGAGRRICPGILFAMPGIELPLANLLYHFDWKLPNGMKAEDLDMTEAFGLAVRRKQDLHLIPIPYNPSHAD


Experiments:
[1] = biological target: T1, VvSTO4; assay: GC-MS of reaction products, recombinant yeast microsomes; type: biochemical; settings: 100 μM substrate, 1 mM NADPH, 50 mM Tris-HCl pH 7.5, 30 °C, 2 h; unidentified products presumed mono-hydroxylated sesquiterpenes
[2] = biological target: T2, VvSTO6; assay: as above; type: biochemical; settings: 100 μM substrate, 1 mM NADPH, 50 mM Tris-HCl pH 7.5, 30 °C, 2 h; unidentified products presumed mono-hydroxylated sesquiterpenes
[3] = substrate: C=C(C)[C@@H]1CCC2=CCC[C@@H](C)[C@]2(C)C1; assay: cells, lysate or membranes; settings: 1 mM NADPH, 50 mM Tris-HCl pH 7.5, 30 °C, 30 min, 2–100 μM substrate
[4] = substrate: C=C(C)[C@@H]1CC[C@H](C)C2=C(C1)[C@@H](C)CC2; assay: GC-MS (SBSE) of (−)-rotundone formation, Hanes-Woolf plot, recombinant yeast microsomes; type: biochemical, Vitis vinifera; settings: 1 mM NADPH, 50 mM Tris-HCl pH 7.5, 30 °C, 30 min, 2.6–130 μM substrate

Row | Molecule | GC-MS of reaction products, recombinant yeast microsomes [1] | GC-MS of reaction products, recombinant yeast microsomes [2] | Km [3] [µM] | Km [4] [µM]
1 | C=C(C)[C@@H]1CC[C@H](C)C2=C(C1)[C@@H](C)CC2 [α-guaiene] | VvSTO4 and VvSTO6 produced several reaction products with α-guaiene as a substrate | VvSTO4 and VvSTO6 produced several reaction products with α-guaiene as a substrate |  | 
2 | VvSTO2 (Vitis vinifera) (protein) MELQFSFFPILCTFLLFIYLLKRLGKPSRTNHPAPKLPPGPWKLPIIGNMHQLVGSLPHRSLRSLAKKHGPLMHLQLGEVSAIVVSSREMAKEVMKTHDIIFSQRPCILAASIVSYDCTDIAFAPYGGYWRQIRKISVLELLSAKRVQSFRSVREEEVLNLVRSVSLQEGVLINLTKSIFSLTFSIISRTAFGKKCKDQEAFSVTLDKFADSAGGFTIADVFPSIKLLHVVSGMRRKLEKVHKKLDRILGNIINEHKARSAAKETCEAEVDDDLVDVLLKVQKQGDLEFPLTMDNIKAVLLDLFVAGTETSSTAVEWAMAEMLKNPRVMAKAQAEVRDIFSRKGNADETVVRELKFLKLVIKETLRLHPPVPLLIPRESRERCAINGYEIPVKTRVIINAWAIARDPKYWTDAESFNPERFLDSSIDYQGTNFEYIPFGAGRRMCPGILFGMANVELALAQLLYHFDWKLPNGARHEELDMTEGFRTSTKRKQDLYLIPITYRPLPVE |  |  | 35 | 30
